The results in this text go back to patent US20110251379A1, “COMPOUNDS USEFUL FOR TREATING NEURODEGENERATIVE DISORDERS” (Satori Pharmaceuticals, Inc., priority 2010, published 2011).

What all share (type): cell-based
One test relates to Aβ-40. Description: MSD Human (6E10) Ab 3-PLEX elisa, conditioned media of 2B7 cells: Aβ-40. The conditions noted are these: for IC50: Aβ-40 (superscript b); for inhibition at 20 µM: Aβ-40, 20 μM. How it is done: (§1) Assays were conducted to determine the ability of a Compound of Formula I to modulate […], and Aβ-38.
(§2) Plates with capture antibodies were blocked for 1-2 hours at room temperature with 150 μL of the manufactures blocking reagent.
(§3) Conditioned Media: • Cultured 2B7 cells in 96 well plate with 250 uL of media per well until confluent; • Prepared serial dilutions of compounds in DMSO at 100× the final desired concentration; • Washed wells with 2B7 cells 1× with 250 uL of media; • Diluted DMSO stocks 1:100 into media: • Added 250 μL of media containing compounds (1% DMSO) to wells with 2B7 cells for 5 hours at 37° C.
(§4) Elisa Sample Prep: • Diluted conditioned media: 1 part media with 1% DMSO and 1 part blocking buffer; • 150 μL of the 250 μL of conditioned media were used.
(§5) […] CURVE SAMPLE PREP: Prepared per manufacturer's protocol (see above) • Seven point standard curve samples were prepared that contained Aβ-42, Aβ-40, and Aβ-38. The highest concentration of Aβ-42 and Aβ-3-38 was 3,000 pg/mL and the highest concentration of Aβ-40 was 10,000 pg/mL. Subsequent serial dilutions were 1:3 and the final composition of each sample was 1 part blocking buffer and 1 part cell medium containing 1% DMSO.
(§6) Overnight Sample Incubation: • Blocked plates are washed 5× with MSD wash buffer with a plate washer • 25 uL of detection antibody and blocker G reagent in MSD blocking solution is added • 25 uL of samples (1 part conditioned media containing 1% DMSO and 1 part MSD blocking buffer) are then added. • plates are incubated overnight at 4 degrees C. or 2 hours at room temp
(§7) Final Wash and Readout: • Wash wells 5× with MSD wash buffer • Added 150 μL 2×MSD read buffer • Read with MSD imager.
(§8) A-Beta peptide levels for each peptide are calculated from the standard curve using the MSD software provided with the MSD 2400 Imager. Percent vehicle values for each compound dosage were then calculated and fit to a 4 parameter curve generating IC50 values.

The test system of another test is Aβ-42. Put plainly: MSD Human (6E10) Ab 3-PLEX elisa, conditioned media of 2B7 cells: Aβ-42. Conditions: for IC50: Aβ-42 (superscript c); for inhibition at 20 µM: Aβ-42, 20 μM. Here is the method: as §1, §2, §3, §4, §5, §6, §7, §8
For another test, the system named is Aβ-38. Description: MSD Human (6E10) Ab 3-PLEX elisa, conditioned media of 2B7 cells: Aβ-38. The conditions noted are these: for IC50: Aβ-38 (superscript a); for inhibition at 20 µM: Aβ-38, 20 μM. How it is done: as §1, §2, §3, §4, §5, §6, §7, §8
The mark [1] stands for this setting: Homo sapiens, read-out: 50% reduction value.
Setting [2] is: Homo sapiens, read-out: IC50 range.

Read-outs that look alike come from different tables or passages of the source.

As to `CC1CC(C2OCC(=O)OC2(C)C)OC2C1C1(C)CCC34CC35CCC(OC3CN(C6COC6)CCO3)C(C)(C)C5CCC4C1(C)C2O` (stereo not drawn), the IC50 with Aβ-40 (read-out: 50% reduction value), in the test on Aβ-42 (read-out: 50% reduction value) and in the test with Aβ-38 (read-out: 50% reduction value) was 1 to 10 µM each time.
Consider `C[C@@H]1CC(COC(=O)C2CCC2)OC2[C@H]1[C@@]1(C)CC[C@@]34C[C@@]35CC[C@H](O[C@H]3CN(C6COC6)CCO3)C(C)(C)[C@@H]5CCC4[C@]1(C)[C@H]2O` (stereo partly drawn), for which the values for the inhibition at 20 µM in the test with Aβ-40 (Homo sapiens), with Aβ-42 (Homo sapiens) and in the test with Aβ-38 (Homo sapiens) were below 25%, below 25% and 25 to 75%, respectively.
As for `C[C@@H]1CC(COc2ncccn2)OC2C1[C@@]1(C)CC[C@@]34C[C@@]35CC[C@H](O[C@H]3CN(C6COC6)CCO3)C(C)(C)[C@@H]5CCC4[C@]1(C)[C@H]2O` (stereo partly drawn), the IC50 in the test with Aβ-40 (setting [1]), with Aβ-40 (setting [2]), with Aβ-42 (setting [1]), with Aβ-42 (setting [2]), in the test on Aβ-38 (setting [1]) and with Aβ-38 (setting [2]) was 1 to 10 µM throughout.
Take `CCO[C@@H](C1C[C@@H](C)[C@H]2C(O1)[C@H](O)[C@@]1(C)C3CC[C@H]4C(C)(C)C(OC(=O)N5CC[C@@H](C(=O)O)C5)CC[C@@]45C[C@@]35CC[C@]21C)C(C)(C)O` (stereo partly drawn): the IC50 in the test with Aβ-40 (setting [1]) is above 10 µM; with Aβ-42 (setting [1]), below 1 µM; in the test on Aβ-42 (setting [2]) it was below 1 µM; in the test on Aβ-38 (setting [1]), 1 to 10 µM.
As for `CC(C)[C@@H](OC(=O)N(C)C)C1C[C@@H](C)[C@H]2C(O1)[C@H](O)[C@@]1(C)C3CC[C@H]4C(C)(C)[C@@H](O)CC[C@@]45C[C@@]35CC[C@]21C` (stereo partly drawn), the IC50 with Aβ-40 (setting [1]) was 1 to 10 µM; in the test on Aβ-40 (setting [2]), above 10 µM; with Aβ-42 (setting [1]) it was below 10 µM; with Aβ-42 (setting [2]) it was 1 to 10 µM; with Aβ-38 (setting [1]) it was below 1 µM; with Aβ-38 (setting [2]), 1 to 10 µM.
Regarding `CC(=O)O[C@@H]([C@H]1C[C@@H](C)C2C(O1)[C@H](O)[C@@]1(C)[C@@H]3CC[C@H]4C(C)(C)[C@@H](OC(=O)c5cccnc5)CC[C@@]45C[C@@]35CC[C@]21C)C(C)(C)O` (stereo partly drawn) [drawing 1200], the IC50 in the test on Aβ-40 (setting [1]) was above 10 µM; in the test with Aβ-42 (setting [1]), below 1 µM; in the test on Aβ-42 (setting [2]), below 1 µM; in the test on Aβ-38 (setting [1]), below 1 µM; with Aβ-38 (setting [2]) it was below 1 µM.
Turning to `CC(=O)O[C@@H]([C@H]1C[C@@H](C)[C@H]2[C@H](O1)C(=O)[C@@]1(C)[C@@H]3CC[C@H]4C(C)(C)[C@@H](O[C@H]5CN(CC(N)=O)CCO5)CC[C@@]45C[C@@]35CC[C@]21C)C(C)(C)O` [drawing 1202], the IC50 with Aβ-40 (setting [1]), in the test on Aβ-38 (setting [1]) and in the test with Aβ-38 (setting [2]) was below 1 µM each time. The inhibition – broadly, the share of the control response that was lost under treatment – at 20 µM with Aβ-42 (Homo sapiens) fell in the range of 25 to 75%.
For the compound `CC(=O)N(Cc1cc(F)cc(F)c1)CC1CC(C)C2C(O1)C(O)C1(C)C3CCC4C(C)(C)C(OC(=O)C5CNC5)CCC45CC35CCC21C` (stereo not drawn) [drawing 1215], the IC50 in the test on Aβ-40 (read-out: 50% reduction value), in the test on Aβ-40 (read-out: IC50 range), in the test with Aβ-42 (read-out: 50% reduction value), in the test with Aβ-42 (read-out: IC50 range), in the test on Aβ-38 (read-out: 50% reduction value) and in the test with Aβ-38 (read-out: IC50 range) was 1 to 10 µM throughout.
In the case of `CNC(=O)O[C@H](C(C)C)C1C[C@@H](C)[C@H]2C(O1)[C@H](O)[C@@]1(C)C3CC[C@H]4C(C)(C)[C@@H](O[C@H]5CNCCO5)CC[C@@]45C[C@@]35CC[C@]21C` (stereo partly drawn), the IC50 is 1 to 10 µM in the test with Aβ-40 (setting [1]); above 10 µM in the test with Aβ-40 (setting [2]); below 1 µM with Aβ-42 (setting [1]); below 1 µM in the test on Aβ-42 (setting [2]); below 1 µM with Aβ-38 (setting [1]). Further, the inhibition at 20 µM in the test with Aβ-40 (Homo sapiens) and with Aβ-42 (Homo sapiens) was 25 to 75% each time.
For `CCOCC1C[C@@H](C)[C@H]2C(O1)[C@H](O)[C@@]1(C)C3CC[C@H]4C(C)(C)C(O[C@H]5CN(C6COC6)CCO5)CC[C@@]45C[C@@]35CC[C@]21C` (stereo partly drawn), the inhibition at 20 µM is below 75% in the test on Aβ-40 (Homo sapiens), below 25% with Aβ-42 (Homo sapiens) and 25 to 75% in the test with Aβ-38 (Homo sapiens). Moreover, the IC50 with Aβ-38 (setting [2]) is 1 to 10 µM.
Regarding `CC(=O)OC(C1CC(C)C2C(O1)C(O)C1(C)C3CCC4C(C)(C)C(OC(=O)C5CNC5)CCC45CC35CCC21C)C(C)(C)O` (stereo not drawn) [drawing 1205], the IC50 in the test on Aβ-40 (read-out: 50% reduction value) is below 1 µM; in the test on Aβ-40 (read-out: IC50 range) it was 1 to 10 µM; in the test with Aβ-42 (read-out: 50% reduction value), below 1 µM; in the test with Aβ-42 (read-out: IC50 range) it was below 1 µM; with Aβ-38 (read-out: 50% reduction value), below 1 µM; in the test on Aβ-38 (read-out: IC50 range), below 1 µM.
